The source of these data is ChEMBL document CHEMBL4765306, “Design, synthesis and biological evaluation of novel naturally-inspired multifunctional molecules for the management of Alzheimer's disease” (Eur J Med Chem, 2020).

The source made the active and inactive calls. The calls are words filed in the database; no cut-off is given here.

As usually defined, the IC50 is the midpoint of a concentration-inhibition curve. The inhibition is the change of the read-out against control, counted positive when it falls.

Test [1] concerns the target T1, Acetylcholinesterase (Homo sapiens, UniProt P22303). Put plainly: Inhibition of recombinant human erythrocyte AChE using acetylthiocholine iodide as substrate preincubated for 30 mins followed by substrate addition and measured after 30 mins by spectrophotometry based Ellman's method. (DTNB colorimetry detects thiols as they appear.)
Test [2] deals with Cholinesterase (Equus caballus) (UniProt P81908). Kind of test: Inhibition of […] equine serum BuChE at 20 uM using butyryl thiocholine iodide as substrate preincubated for 30 mins followed by substrate addition and measured after 30 mins by spectrophotometry based Ellman's method relative to control. The conditions noted are these: time 60.0 min. It is filed as cell-free.
Sequence of Cholinesterase (Equus caballus) (P81908 whole entry): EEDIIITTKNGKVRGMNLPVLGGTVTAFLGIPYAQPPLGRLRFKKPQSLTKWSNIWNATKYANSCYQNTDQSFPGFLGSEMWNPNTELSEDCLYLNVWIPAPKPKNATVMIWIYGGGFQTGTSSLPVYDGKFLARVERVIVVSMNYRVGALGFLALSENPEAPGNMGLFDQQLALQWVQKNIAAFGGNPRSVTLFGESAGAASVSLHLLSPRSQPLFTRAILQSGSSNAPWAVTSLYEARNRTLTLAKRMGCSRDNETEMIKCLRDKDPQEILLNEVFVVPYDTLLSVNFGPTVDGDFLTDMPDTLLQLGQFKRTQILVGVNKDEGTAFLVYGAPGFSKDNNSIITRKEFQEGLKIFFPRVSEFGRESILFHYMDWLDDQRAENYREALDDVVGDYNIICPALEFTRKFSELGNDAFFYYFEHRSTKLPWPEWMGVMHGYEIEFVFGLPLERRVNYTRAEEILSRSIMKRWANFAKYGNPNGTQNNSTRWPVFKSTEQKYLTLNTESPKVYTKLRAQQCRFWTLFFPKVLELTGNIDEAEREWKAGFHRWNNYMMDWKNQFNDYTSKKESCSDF

Test [3] is described as follows: Antioxidant activity assessed as DPPH radical scavenging activity at 20 uM incubated for 25 mins in shaker relative to control. It counts as functional.
Test [4] in a line: Antioxidant activity assessed as DPPH radical scavenging activity incubated for 25 mins in shaker. It counts as functional. Background: The DPPH test is a chemical assay of radical scavenging.
In test [5] the test system is Mus musculus. Kind of test: Memory enhancement effect in scopolamine-induced Swiss albino mouse model of amnesia assessed as increase in spontaneous alteration at 5 mg/kg, po administered for 7 days and observed after 30 mins before scopolamine treatment and measured after 15 mins by Y-maze test. It counts as functional, organism-based. The conditions noted are these: time 7.0 day.

Test [6] concerns Mus musculus. Put plainly: Memory enhancement effect in scopolamine-induced Swiss albino mouse model of amnesia assessed as effect on total arm entries at 5 mg/kg, po administered for 7 days and observed after 30 mins before scopolamine treatment and measured after 15 mins by Y-maze test. The conditions noted are these: time 7.0 day. It counts as functional, organism-based.
For test [7], the species on record is Homo sapiens. Kind of test: Disruption of human amyloid beta 1 to 42 assessed as effect on amyloid beta 1 to 42 morphology at 1.58 uM incubated for 10 days by atomic force microscopic analysis. The conditions noted are these: time 10.0 day.
The nature of test [8]: Metal chelating activity assessed as Fe3+-compound complex formation at 300 uM measured for 30 mins by MS-MS analysis.
Test [9] concerns the target Cholinesterase (Equus caballus, UniProt P81908). Put plainly: Inhibition of […] equine serum BuChE using butyryl thiocholine iodide as substrate preincubated for 30 mins followed by substrate addition and measured after 30 mins by spectrophotometry based Ellman's method. It is filed as cell-free.
Test [10] can be described thus: Metal chelating activity assessed as Fe3+-compound complex formation at 300 uM measured for 30 mins by UV-Visible spectrophotometric method.
Test [11] relates to Mus musculus. Put plainly: Ex vivo antioxidant activity in brain of scopolamine-induced Swiss albino mouse model of amnesia assessed as decrease in MDA level at 12.5 to 25 mg/kg, po administered for 7 days and observed after 30 mins before scopolamine treatment and measured after 15 mins. It is filed as functional, organism-based. The conditions noted are these: dose 12.5-25 mg/kg, time 7.0 day.

Test [12] addresses T1, Acetylcholinesterase. Put plainly: Inhibition of AChE (unknown origin) at 20 uM relative to control.
The target of test [13] is Cholinesterase (Homo sapiens) (UniProt P06276). Put plainly: Inhibition of BuChE (unknown origin) at 20 uM relative to control.
Sequence of Cholinesterase (Homo sapiens) (P06276 whole entry): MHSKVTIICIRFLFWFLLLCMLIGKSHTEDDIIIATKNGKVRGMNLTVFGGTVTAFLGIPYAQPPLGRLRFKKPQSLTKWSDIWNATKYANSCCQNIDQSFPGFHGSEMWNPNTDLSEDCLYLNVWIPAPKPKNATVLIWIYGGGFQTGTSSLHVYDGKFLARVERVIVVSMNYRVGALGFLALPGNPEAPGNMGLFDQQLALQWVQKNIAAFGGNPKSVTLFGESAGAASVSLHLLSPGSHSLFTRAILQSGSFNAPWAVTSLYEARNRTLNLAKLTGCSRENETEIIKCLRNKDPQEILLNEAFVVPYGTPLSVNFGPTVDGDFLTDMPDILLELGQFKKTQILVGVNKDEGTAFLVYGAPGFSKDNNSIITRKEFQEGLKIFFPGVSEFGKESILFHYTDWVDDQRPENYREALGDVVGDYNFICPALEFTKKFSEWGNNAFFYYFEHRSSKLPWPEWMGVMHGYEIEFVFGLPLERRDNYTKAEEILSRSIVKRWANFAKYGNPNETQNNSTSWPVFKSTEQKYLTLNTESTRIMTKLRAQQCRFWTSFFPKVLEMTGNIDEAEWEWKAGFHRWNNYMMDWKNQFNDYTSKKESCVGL
Test [14] has as its system Mus musculus. Put plainly: Ex vivo inhibition of BChE in brain of scopolamine-induced Swiss albino mouse model of amnesia at 12.5 to 25 mg/kg, po administered for 7 days and observed after 30 mins before scopolamine treatment and measured after 15 mins using butyryl thiocholine iodide as substrate by Ellman's method. It is filed as functional, organism-based. The conditions noted are these: dose 12.5-25 mg/kg, time 7.0 day.

Test [15] concerns Mus musculus. Put plainly: Memory enhancement effect in scopolamine-induced Swiss albino mouse model of amnesia assessed as increase in spontaneous alteration at 12.5 to 25 mg/kg, po administered for 7 days and observed after 30 mins before scopolamine treatment and measured after 15 mins by Y-maze test. It is filed as functional, organism-based. The conditions noted are these: dose 12.5-25 mg/kg, time 7.0 day.

The target of test [16] is T1, Acetylcholinesterase. Kind of test: Inhibition of recombinant human erythrocyte AChE at 20 uM using acetylthiocholine iodide as substrate preincubated for 30 mins followed by substrate addition and measured after 30 mins by spectrophotometry based Ellman's method relative to control. The conditions noted are these: time 60.0 min.
Test [17] concerns Mus musculus. Put plainly: Ex vivo inhibition of AChE in brain of scopolamine-induced Swiss albino mouse model of amnesia at 12.5 to 25 mg/kg, po administered for 7 days and observed after 30 mins before scopolamine treatment and measured after 15 mins using acetylthiocholine iodide as substrate by Ellman's method. It counts as functional, organism-based. The conditions noted are these: dose 12.5-25 mg/kg, time 7.0 day.

In test [18] the test system is Mus musculus. Kind of test: Ex vivo antioxidant activity in brain of scopolamine-induced Swiss albino mouse model of amnesia assessed as increase in SOD level at 12.5 to 25 mg/kg, po administered for 7 days and observed after 30 mins before scopolamine treatment and measured after 15 mins. The conditions noted are these: dose 12.5-25 mg/kg, time 7.0 day. It is filed as functional, organism-based.

Test [19] has as its system Mus musculus. Kind of test: Memory enhancement effect in scopolamine-induced Swiss albino mouse model of amnesia assessed as effect on total arm entries at 12.5 to 25 mg/kg, po administered for 7 days and observed after 30 mins before scopolamine treatment and measured after 15 mins by Y-maze test. The conditions noted are these: dose 12.5-25 mg/kg, time 7.0 day. It is filed as functional, organism-based.

Test [20] deals with Mus musculus. Put plainly: Ex vivo antioxidant activity in brain of scopolamine-induced Swiss albino mouse model of amnesia assessed as increase in CAT level at 12.5 to 25 mg/kg, po administered for 7 days and observed after 30 mins before scopolamine treatment and measured after 15 mins. It counts as functional, organism-based. The conditions noted are these: dose 12.5-25 mg/kg, time 7.0 day.

T1 sequence (P22303 whole entry): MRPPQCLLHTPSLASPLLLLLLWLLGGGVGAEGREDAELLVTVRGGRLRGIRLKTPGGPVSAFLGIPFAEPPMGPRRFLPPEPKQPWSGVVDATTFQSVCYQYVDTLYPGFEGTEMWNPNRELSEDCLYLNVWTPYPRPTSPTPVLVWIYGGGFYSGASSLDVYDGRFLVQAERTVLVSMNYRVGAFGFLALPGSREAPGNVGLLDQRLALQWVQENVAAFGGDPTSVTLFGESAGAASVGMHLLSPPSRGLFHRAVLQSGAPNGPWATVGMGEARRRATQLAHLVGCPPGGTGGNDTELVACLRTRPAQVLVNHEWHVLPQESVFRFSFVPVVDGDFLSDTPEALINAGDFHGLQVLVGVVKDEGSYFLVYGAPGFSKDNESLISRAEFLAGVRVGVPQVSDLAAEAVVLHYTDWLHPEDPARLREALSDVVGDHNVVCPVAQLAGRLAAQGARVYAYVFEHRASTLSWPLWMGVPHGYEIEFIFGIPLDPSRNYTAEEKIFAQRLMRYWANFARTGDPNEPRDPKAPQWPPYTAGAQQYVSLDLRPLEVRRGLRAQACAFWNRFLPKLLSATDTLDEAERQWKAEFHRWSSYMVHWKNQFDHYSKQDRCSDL
Sequence of Cholinesterase (P81908 whole entry): as the sequence (P81908 whole entry) above

Regarding `COc1cc(/C=C/C(=O)N2CCN(c3ccc(C)cc3)CC2)ccc1O`, the IC50 in test [1] turned out to be 19.5 µM. In [2], the inhibition came out at 38.1%.

As for `COc1cc(/C=C/C(=O)N2CCN(c3cccc([N+](=O)[O-])c3)CC2)ccc1O`, the IC50 in test [1] was found to be 23.4 µM. Besides, the inhibition in test [2] amounted to 37.9%.

In the case of `COc1cc(/C=C/C(=O)NCC(=O)Nc2cccc(Br)c2)ccc1O`, in [1], the concentration for half-maximal inhibition (IC50) was 13.1 µM. For the same compound, in [2], the inhibition was 36.6%.

Turning to `COc1cc(/C=C/C(=O)NCC(=O)Nc2ccccc2C(F)(F)F)ccc1O`, the IC50 in test [1] is 15.1 µM. Moreover, in test [2], the inhibition turned out to be 43.2%.

For `COc1cc(/C=C/C(=O)NCC(=O)Nc2ccccc2)ccc1O`, in test [1], the concentration for half-maximal inhibition (IC50) was 21.9 µM. For the same compound, the inhibition in test [2] turned out to be 38.2%.

Consider `COc1ccc(N2CCN(C(=O)/C=C/c3ccc(O)c(OC)c3)CC2)cc1`, for which the 50% inhibitory concentration (IC50) in test [1] came out at 12 µM. Moreover, the inhibition in test [2] was 44.7%.

Turning to `COc1cc(/C=C/C(=O)NCC(=O)Nc2ccc(Br)cc2)ccc1O`, the IC50 in [1] came out at 10.2 µM. Besides, in [2], the inhibition was determined as 39.3%.

Consider `COc1cc(/C=C/C(=O)N2CCN(c3ccccc3)CC2)ccc1O`, for which, in test [1], the IC50 was 29.3 µM. Also, the inhibition in [2] is 37%.

In the case of `COc1cc(/C=C/C(=O)NCC(=O)Nc2ccc(Cl)cc2)ccc1O`, the IC50 amounted to 3.43 µM in test [1] and 101 µM in test [4]. Also, the inhibition in [2] stood at 46.9%. Also, the Activity in test [3] turned out to be 16.7%.

Take `COc1cc(/C=C/C(=O)NCC(=O)Nc2ccccc2OC)ccc1O`: in test [1], the IC50 came out at 5.75 µM. Further, the inhibition in test [2] came out at 43.3%.

On to `COc1cc(/C=C/C(=O)N2CCN(c3ccc(F)cc3)CC2)ccc1O`, for which the IC50 in [1] was 11 µM. Further, the inhibition in test [2] is 27.7%.

With `COc1cc2c(cc1OC)C(=O)C(CC1CCN(Cc3ccccc3)CC1)C2` (stereo not given), the result in test [5] and in test [6] was Active. In addition, in test [7], the outcome was inactive.

Regarding `COc1cc(/C=C/C(=O)NCC(=O)Nc2cccc(C#N)c2)ccc1O`, the IC50 in [1] turned out to be 16 µM. In [2], the inhibition worked out at 31.6%.

As to `COc1cc(/C=C/C(=O)NCC(=O)Nc2ccccc2Cl)ccc1O`, the half-inhibitory concentration (IC50) in test [1] is 5.72 µM. Also, the inhibition in [2] is 47.4%.

For the compound `COc1cc(/C=C/C(=O)N2CCN(c3ccc(Cl)cc3)CC2)ccc1O`, the IC50 in test [1] worked out at 11.1 µM. Moreover, the inhibition in test [2] was 33.2%.

Take `COc1cc(/C=C/C(=O)NCC(=O)Nc2cccc(F)c2)ccc1O`: the IC50 in test [1] came to 22.1 µM. Also, the inhibition in test [2] was determined as 38.3%.

On to `COc1cccc(NC(=O)CNC(=O)/C=C/c2ccc(O)c(OC)c2)c1`, for which the half-maximal inhibitory concentration (IC50) came out at 2.42 µM in [1], 94.3 µM in test [4] and 15.3 µM in test [9]. Besides, the inhibition in test [2] worked out at 55.4%. Besides, the Activity in [3] came out at 19.1%. Besides, the result in test [8] and in [10] was Active.

Regarding `COc1cc(/C=C/C(=O)NCC(=O)Nc2cccc(Cl)c2)ccc1O`, the half-maximal inhibitory concentration (IC50) stood at 5.68 µM in test [1] and 108 µM in test [4]. The inhibition in test [2] was determined as 48.5%. Also, the Activity in test [3] stood at 12.7%.

In the case of `COc1cc(/C=C/C(=O)NCC(=O)Nc2ccc(C)cc2)ccc1O`, the IC50 in [1] amounted to 12.6 µM. Besides, the inhibition in test [2] turned out to be 35.6%.

Take `COc1cc(/C=C/C(=O)NCC(=O)Nc2cccc(C)c2)ccc1O`: the IC50 in [1] stood at 18.9 µM. Also, the inhibition in [2] was 36.1%.

Turning to `COc1cc(/C=C/C(=O)NCC(=O)Nc2ccc(F)cc2)ccc1O`, in [1], the half-inhibitory concentration (IC50) was 12.9 µM. Besides, in test [2], the inhibition came to 42.2%.

Consider `COc1cccc(N2CCN(C(=O)/C=C/c3ccc(O)c(OC)c3)CC2)c1`, for which the values for the half-maximal inhibitory concentration (IC50) in test [1] and in test [4] were 9.91 µM and 62 µM, respectively. Further, the inhibition in [2] amounted to 26.9%. In test [3], the Activity was 28.8%.

Turning to `COc1cc(/C=C/C(=O)NCC(=O)Nc2ccccc2C)ccc1O`, the IC50 in [1] came out at 16.3 µM. For the same compound, in [2], the inhibition was 36.8%.

`COc1cc(/C=C/C(=O)NCC(=O)Nc2ccc3ncccc3c2)ccc1O`: the IC50 in test [1] worked out at 4.89 µM; in [4], 77.6 µM; in test [9] it was 14.3 µM. For the same compound, the inhibition in test [2] amounted to 57.7%. Besides, in [3], the Activity came out at 18.6%.

For `COc1cc(/C=C/C(=O)NCC(=O)Nc2ccc(C(F)(F)F)cc2)ccc1O`, the half-inhibitory concentration (IC50) in test [1] turned out to be 8.23 µM. Further, the inhibition in [2] worked out at 37.2%.

Turning to `COc1cc(/C=C/C(=O)NCC(=O)Nc2ccc(C#N)cc2)ccc1O`, the IC50 in test [1] came out at 17.4 µM. The inhibition in test [2] was 35.7%.

For `COc1cc(/C=C/C(=O)NCC(=O)Nc2cccc(C(F)(F)F)c2)ccc1O`, in test [1], the IC50 came out at 9.31 µM. In addition, the inhibition in [2] was 34.9%.

Consider `COc1ccc(NC(=O)CNC(=O)/C=C/c2ccc(O)c(OC)c2)cc1`, for which the results for the IC50 in test [1], in test [4] and in test [9] were 17.3 µM, 91.2 µM and 19.5 µM, respectively. In [2], the inhibition is 49.9%. In test [3], the Activity amounted to 23.6%.

For the compound `COc1cc(/C=C/C(=O)O)ccc1O` [FERULATE], the result in test [11], in test [7], in test [18] and in test [20] was Active. The inhibition in test [2] was 19.7%; in test [12] it was less than 20%; in test [13] it was less than 20%; in test [16] it was less than 10%. In addition, the Activity in test [3] amounted to 28.6%. In addition, the outcome in test [14], in [15], in [17] and in [19] was inactive. The half-maximal inhibitory concentration (IC50) in [4] turned out to be 56.5 µM.

With `COc1cc(/C=C/C(=O)NCC(=O)Nc2ccccc2F)ccc1O`, the IC50 in [1] was found to be 17.2 µM. Further, the inhibition in [2] is 31.9%.
